Measured values from the supplement of paper PMC10307832.

Legend:
Experiment in all cases: relative viability (nuclei count vs DMSO), 5 days (fraction); higher = more cells survive
[1] = system: NCI-H838
How it was run: (§1)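 The day after seeding in 1536-well plates, lung cancer cell lines were treated by pin tool with a single drug, or with a fixed anchor-drug dose together with five library-drug doses (not always all listed) in √10 steps. After 5 days, a combined fix-and-stain solution (final 0.05% Triton X-100, 1% formaldehyde, 1 ug/ml Hoechst) was added. Nuclei counted on 4× images gave relative viability as treated counts over vehicle counts, reported as the median of duplicate plates.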

[2] = system: ChaGo-K-1
How it was run: as §1

[3] = system: HOP-62
How it was run: as §1

[4] = system: SK-LU-1
How it was run: as §1

[5] = system: NCI-H2023
How it was run: as §1

[6] = system: NCI-H1793
How it was run: as §1

[7] = system: NCI-H1944
How it was run: as §1

[8] = system: NCI-H2405
How it was run: as §1

[9] = system: HCC-15
How it was run: as §1

[10] = system: NCI-H2228
How it was run: as §1

[11] = system: ABC-1
How it was run: as §1

[12] = system: HARA
How it was run: as §1

[13] = system: NCI-H1993
How it was run: as §1

[14] = system: EMC-BAC-2
How it was run: as §1

[15] = system: NCI-H23
How it was run: as §1

[16] = system: COR-L23
How it was run: as §1

[17] = system: NCI-H2126
How it was run: as §1

[18] = system: NCI-H358
How it was run: as §1

[19] = system: NCI-H1395
How it was run: as §1

[20] = system: LC-2-ad
How it was run: as §1

`COc1cc2nccc(Oc3ccc(NC(=O)Nc4cc(C)on4)c(Cl)c3)c2cc1OC` [Tivozanib] + CCNC(=O)c1noc(-c2cc(C(C)C)c(O)cc2O)c1-c1ccc(CN2CCOCC2)cc1 [Luminespib] (partner 0.01 µM) showed a relative viability ([1]; first compound 0.005 µM) of 0.196, a relative viability ([1]; first compound 0.01581 µM) of 0.265 and a relative viability ([1]; first compound 0.05 µM) of 0.501. It also gave a relative viability ([1]; first compound 0.5 µM) of 0.237, a relative viability ([2]; first compound 0.005 µM) of 0.622 and a relative viability ([2]; first compound 0.01581 µM) of 0.565. For the same molecule, the relative viability ([2]; first compound 0.05 µM) was 0.593, the relative viability ([2]; first compound 0.1581 µM) was 0.497 and the relative viability ([2]; first compound 0.5 µM) was 0.502. For the same molecule, the relative viability ([3]; first compound 0.005 µM) was 0.857, the relative viability ([3]; first compound 0.01581 µM) was 0.961 and the relative viability ([3]; first compound 0.05 µM) was 0.894. The relative viability ([3]; first compound 0.1581 µM) was 0.932, the relative viability ([3]; first compound 0.5 µM) was 0.918 and the relative viability ([4]; first compound 0.005 µM) was 0.197. For the same molecule, the relative viability ([4]; first compound 0.01581 µM) was 0.211, the relative viability ([4]; first compound 0.05 µM) was 0.201 and the relative viability ([4]; first compound 0.1581 µM) was 0.184. For the same molecule, the relative viability ([4]; first compound 0.5 µM) was 0.207, the relative viability ([5]; first compound 0.005 µM) was 0.664 and the relative viability ([5]; first compound 0.01581 µM) was 0.698. For the same molecule, the relative viability ([5]; first compound 0.05 µM) was 0.681, the relative viability ([5]; first compound 0.1581 µM) was 0.748 and the relative viability ([5]; first compound 0.5 µM) was 0.763. For the same molecule, the relative viability ([6]; first compound 0.005 µM) was 0.154, the relative viability ([6]; first compound 0.01581 µM) was 0.422 and the relative viability ([6]; first compound 0.05 µM) was 0.2. For the same molecule, the relative viability ([6]; first compound 0.1581 µM) was 0.141, the relative viability ([6]; first compound 0.5 µM) was 0.237 and the relative viability ([7]; first compound 0.005 µM) was 0.691. For the same molecule, the relative viability ([7]; first compound 0.01581 µM) was 0.83, the relative viability ([7]; first compound 0.05 µM) was 0.732 and the relative viability ([7]; first compound 0.1581 µM) was 0.625. The relative viability ([7]; first compound 0.5 µM) was 0.818, the relative viability ([8]; first compound 0.005 µM) was 0.644 and the relative viability ([8]; first compound 0.01581 µM) was 0.953. It also gave a relative viability ([8]; first compound 0.05 µM) of 0.723, a relative viability ([8]; first compound 0.1581 µM) of 0.684 and a relative viability ([8]; first compound 0.5 µM) of 0.54. For the same molecule, the relative viability ([9]; first compound 0.005 µM) was 0.249, the relative viability ([9]; first compound 0.01581 µM) was 0.382 and the relative viability ([9]; first compound 0.05 µM) was 0.327. It also gave a relative viability ([9]; first compound 0.1581 µM) of 0.398, a relative viability ([9]; first compound 0.5 µM) of 0.378 and a relative viability ([10]; first compound 0.005 µM) of 0.0873. For the same molecule, the relative viability ([10]; first compound 0.01581 µM) was 0.219, the relative viability ([10]; first compound 0.05 µM) was 0.112 and the relative viability ([10]; first compound 0.1581 µM) was 0.185. It also gave a relative viability ([10]; first compound 0.5 µM) of 0.109, a relative viability ([11]; first compound 0.005 µM) of 0.692 and a relative viability ([11]; first compound 0.05 µM) of 0.429. The relative viability ([11]; first compound 0.1581 µM) was 0.389, the relative viability ([11]; first compound 0.5 µM) was 0.215 and the relative viability ([12]; first compound 0.005 µM) was 0.686. The relative viability ([12]; first compound 0.01581 µM) was 0.795, the relative viability ([12]; first compound 0.05 µM) was 0.75 and the relative viability ([12]; first compound 0.1581 µM) was 0.964. It also gave a relative viability ([12]; first compound 0.5 µM) of 0.689, a relative viability ([13]; first compound 0.005 µM) of 0.783 and a relative viability ([13]; first compound 0.01581 µM) of 0.741. It also gave a relative viability ([13]; first compound 0.05 µM) of 0.955, a relative viability ([13]; first compound 0.1581 µM) of 0.753 and a relative viability ([13]; first compound 0.5 µM) of 0.825. It also gave a relative viability ([14]; first compound 0.005 µM) of 1.13, a relative viability ([14]; first compound 0.01581 µM) of 1.18 and a relative viability ([14]; first compound 0.05 µM) of 1.26. It also gave a relative viability ([14]; first compound 0.1581 µM) of 1.13, a relative viability ([14]; first compound 0.5 µM) of 1.16 and a relative viability ([15]; first compound 0.01581 µM) of 0.198. The relative viability ([15]; first compound 0.05 µM) was 0.193, the relative viability ([15]; first compound 0.1581 µM) was 0.206 and the relative viability ([15]; first compound 0.5 µM) was 0.207. For the same molecule, the relative viability ([16]; first compound 0.005 µM) was 0.62, the relative viability ([16]; first compound 0.01581 µM) was 0.607 and the relative viability ([16]; first compound 0.05 µM) was 0.748. The relative viability ([16]; first compound 0.1581 µM) was 0.597, the relative viability ([16]; first compound 0.5 µM) was 0.532 and the relative viability ([17]; first compound 0.005 µM) was 0.823. The relative viability ([17]; first compound 0.01581 µM) was 0.964, the relative viability ([17]; first compound 0.05 µM) was 0.875 and the relative viability ([17]; first compound 0.1581 µM) was 0.697. It also gave a relative viability ([17]; first compound 0.5 µM) of 0.855, a relative viability ([18]; first compound 0.005 µM) of 0.336 and a relative viability ([18]; first compound 0.01581 µM) of 0.568. The relative viability ([18]; first compound 0.05 µM) was 0.478, the relative viability ([18]; first compound 0.5 µM) was 0.339 and the relative viability ([19]; first compound 0.005 µM) was 0.654. It also gave a relative viability ([19]; first compound 0.01581 µM) of 0.755, a relative viability ([19]; first compound 0.05 µM) of 0.852 and a relative viability ([19]; first compound 0.1581 µM) of 0.706. It also gave a relative viability ([19]; first compound 0.5 µM) of 0.688, a relative viability ([20]; first compound 0.005 µM) of 1.03 and a relative viability ([20]; first compound 0.01581 µM) of 1.19. It also gave a relative viability ([20]; first compound 0.05 µM) of 0.993, a relative viability ([20]; first compound 0.1581 µM) of 0.945 and a relative viability ([20]; first compound 0.5 µM) of 0.879.
